Consider 29 compounds from patent US7803822B2, “Triazole derivative and use thereof” (Takeda Pharmaceutical Company Limited, priority 2005, dated 2010).

The target of one data set is T1, human PAR-1 (Homo sapiens, UniProt P25116).
T1 construct: expressed in transfected cells; host or cells: CHO-K1 (transformant flag/trn/CHO-K1)
T1 sequence (P25116 22-425): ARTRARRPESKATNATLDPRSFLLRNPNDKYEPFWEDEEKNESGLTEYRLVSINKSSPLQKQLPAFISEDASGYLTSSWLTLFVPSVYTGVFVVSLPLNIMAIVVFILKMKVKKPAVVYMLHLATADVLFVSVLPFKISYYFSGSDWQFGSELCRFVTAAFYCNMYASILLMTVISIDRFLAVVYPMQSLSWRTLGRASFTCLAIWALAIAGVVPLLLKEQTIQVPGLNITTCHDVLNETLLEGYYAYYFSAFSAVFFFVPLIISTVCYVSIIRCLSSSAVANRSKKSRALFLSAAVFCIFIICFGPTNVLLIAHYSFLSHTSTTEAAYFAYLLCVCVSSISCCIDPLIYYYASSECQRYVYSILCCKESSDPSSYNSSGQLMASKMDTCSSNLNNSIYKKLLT
As to the kind of experiment: Evaluation of PAR-1 antagonistic action by intracellular calcium concentration variation assay (FLIPR). In kind it is cell-based. To be noted: human PAR-1-expressing CHO cells, agonist peptide SFLLRN-NH2 final concentration 0.3 nM, Fluo-3AM. How it is done: Evaluation of PAR-1 Antagonistic Action of Compound by Intracellular Calcium Concentration Variation Assay
Human PAR-1-expressing cells was plated at 3×10^4 cells/well on a 96 well clear bottom plate (Corning 3904 type) and cultured for 16-24 hr. The medium was removed from the wells of the plate, measurement buffer (50 μL, 115 mM NaCl, 5.4 mM KCl, 1.8 mM CaCl2, 0.8 mM MgCl2, 13.8 mM D-glucose, 0.1% BSA, 20 mM HEPES, pH 7.4) containing 2.5 μg/mL of Fluo-3AM (manufactured by Dojindo Laboratories), 0.08% Pluronic F-127 and 2.5 mM Probenecid was added to the cells and the mixture was reacted at 37° C. for 1 hr. The cells were washed twice with the measurement buffer. After addition of the measurement buffer (100 μL), a measurement buffer (50 μL) containing a test compound was added, and the mixture was stood still for 10 min. The plate was moved to a fluorometry image-plate reader (FLIPR-1, manufactured by Molecular Devices). […] The intracellular calcium concentration was measured by FLIPR.

Each structure is given as a SMILES string.

As to `CCNC(=O)c1ccc(-n2nnc(C(=O)NC3CC3)c2Cc2ccccc2)cc1` [Example 99, 5-benzyl-N-cyclopropyl-1-{4-[(ethylamino)carbonyl]phenyl}-1H-1,2,3-triazole-4-carboxamide], the IC50 at human PAR-1 is 1300 nM.

`CCNC(=O)c1ccc(-n2nnc(C(=O)NC3CC3)c2CCCc2ccccc2)cc1` [Example 100, N-cyclopropyl-1-{4-[(ethylamino)carbonyl]phenyl}-5-(3-phenylpropyl)-1H-1,2,3-triazole-4-carboxamide]: on human PAR-1, the IC50 came out at 700 nM.

Take `CCNC(=O)c1ccc(-n2nnc(C(=O)NC3CC3)c2CCCCCc2ccccc2)cc1` [Example 101, N-cyclopropyl-1-{4-[(ethylamino)carbonyl]phenyl}-5-(5-phenylpentyl)-1H-1,2,3-triazole-4-carboxamide]: on human PAR-1, the IC50 came out at 820 nM.

Take `CCNC(=O)c1ccc(-n2nnc(C(=O)NC3CC3)c2CC2CCCCC2)cc1` [Example 102, 5-(cyclohexylmethyl)-N-cyclopropyl-1-{4-[(ethylamino)carbonyl]phenyl}-1H-1,2,3-triazole-4-carboxamide]: the half-maximal inhibitory concentration (IC50) on human PAR-1 came out at 1800 nM.

Consider `CCNC(=O)c1ccc(-n2nnc(C(=O)NC3CC3)c2CC2CCCC2)cc1` [Example 103, 5-(cyclopentylmethyl)-N-cyclopropyl-1-{4-[(ethylamino)carbonyl]phenyl}-1H-1,2,3-triazole-4-carboxamide], for which, at human PAR-1, the IC50 amounted to 780 nM.

Take `CCNC(=O)c1ccc(-n2nnc(C(=O)NC3CC3)c2-c2ccccc2)cc1` [Example 105, N-cyclopropyl-1-{4-[(ethylamino)carbonyl]phenyl}-5-phenyl-1H-1,2,3-triazole-4-carboxamide]: the IC50 at human PAR-1 was found to be 2700 nM.

As to `CCNC(=O)c1ccc(-n2nnc(C(=O)NC3CC3)c2/C=C/c2ccccc2)cc1` [Example 106, N-cyclopropyl-1-{4-[(ethylamino)carbonyl]phenyl}-5-[(E)-2-phenylvinyl]-1H-1,2,3-triazole-4-carboxamide], at human PAR-1, the IC50 is 400 nM.

As for `CCNC(=O)c1ccc(-n2nnc(C(=O)NC3CC3)c2CCCCF)cc1` [Example 108, N-cyclopropyl-1-{4-[(ethylamino)carbonyl]phenyl}-5-(4-fluorobutyl)-1H-1,2,3-triazole-4-carboxamide], the 50% inhibitory concentration (IC50) at human PAR-1 is 620 nM.

Regarding `CCNC(=O)c1ccc(-n2nnc(C(=O)NC3CC3)c2CCCF)cc1` [Example 109, N-cyclopropyl-1-{4-[(ethylamino)carbonyl]phenyl}-5-(3-fluoropropyl)-1H-1,2,3-triazole-4-carboxamide], the IC50 at human PAR-1 came out at 3400 nM.

Turning to `CCNC(=O)c1ccc(-n2nnc(C(=O)NC3CC3)c2CCCCCF)cc1` [Example 111, N-cyclopropyl-1-{4-[(ethylamino)carbonyl]phenyl}-5-(5-fluoropentyl)-1H-1,2,3-triazole-4-carboxamide], the melting point is 150.3 °C. For the same compound, the IC50 on human PAR-1 was 1600 nM.

For `CCNC(=O)c1ccc(-n2nnc(C(=O)NC3CC3)c2CCCO)cc1` [Example 113, N-cyclopropyl-1-{4-[(ethylamino)carbonyl]phenyl}-5-(3-hydroxypropyl)-1H-1,2,3-triazole-4-carboxamide], at human PAR-1, the IC50 amounted to 3100 nM.

`CCNC(=O)c1ccc(-n2nnc(C(=O)NC3CC3)c2CCO)cc1` [Example 114, N-cyclopropyl-1-{4-[(ethylamino)carbonyl]phenyl}-5-(2-hydroxyethyl)-1H-1,2,3-triazole-4-carboxamide] yielded a melting point of 156 °C.

On to `C=Cc1c(C(=O)NC2CC2)nnn1-c1ccc(C(=O)NCC)cc1` [Example 115, N-cyclopropyl-1-{4-[(ethylamino)carbonyl]phenyl}-5-vinyl-1H-1,2,3-triazole-4-carboxamide], for which the melting point came to 162 °C.

As for `CCNC(=O)c1ccc(-n2nnc(C(=O)NC3CC3)c2COc2ccc(Br)cc2)cc1` [Example 116, 5-[(4-bromophenoxy)methyl]-N-cyclopropyl-1-{4-[(ethylamino)carbonyl]phenyl}-1H-1,2,3-triazole-4-carboxamide], the IC50 at human PAR-1 worked out at 750 nM.

In the case of `CCNC(=O)c1ccc(-n2nnc(C(=O)NC3CC3)c2COc2cccc(Cl)n2)cc1` [Example 118, 5-{[(6-chloropyridin-2-yl)oxy]methyl}-N-cyclopropyl-1-{4-[(ethylamino)carbonyl]phenyl}-1H-1,2,3-triazole-4-carboxamide], the IC50 on human PAR-1 is 1400 nM.

As to `CCNC(=O)c1ccc(-n2nnc(C(=O)NC3CC3)c2COc2ccc(OC)cc2)cc1` [Example 122, N-cyclopropyl-1-{4-[(ethylamino)carbonyl]phenyl}-5-[(4-methoxyphenoxy)methyl]-1H-1,2,3-triazole-4-carboxamide], the IC50 on human PAR-1 was determined as 3300 nM.

Consider `CCNC(=O)c1ccc(-n2nnc(C(=O)NC3CC3)c2COc2ccc(F)cc2)cc1` [Example 123, N-cyclopropyl-1-{4-[(ethylamino)carbonyl]phenyl}-5-[(4-fluorophenoxy)methyl]-1H-1,2,3-triazole-4-carboxamide], for which the IC50 on human PAR-1 stood at 980 nM.

For `CCNC(=O)c1ccc(-n2nnc(C(=O)NC3CC3)c2CNCc2ccccc2)cc1` [Example 126, 5-[(benzylamino)methyl]-N-cyclopropyl-1-{4-[(ethylamino)carbonyl]phenyl}-1H-1,2,3-triazole-4-carboxamide], the melting point amounted to 153 °C.

As for `CCNC(=O)c1ccc(-n2nnc(C(=O)NC3CC3)c2CN2CCCC2)cc1` [Example 127, N-cyclopropyl-1-{4-[(ethylamino)carbonyl]phenyl}-5-(pyrrolidin-1-ylmethyl)-1H-1,2,3-triazole-4-carboxamide], the melting point is 164 °C.

As to `CCNC(=O)c1ccc(-n2nnc(C(=O)NC3CC3)c2CN2CCOCC2)cc1` [Example 128, N-cyclopropyl-1-{4-[(ethylamino)carbonyl]phenyl}-5-(morpholin-4-ylmethyl)-1H-1,2,3-triazole-4-carboxamide], the melting point was 234 °C (dec.).

`CCNC(=O)c1ccc(-n2nnc(C(=O)NC3CC3)c2CSC)cc1` [Example 129, N-cyclopropyl-1-{4-[(ethylamino)carbonyl]phenyl}-5-[(methylthio)methyl]-1H-1,2,3-triazole-4-carboxamide] returned a melting point of 192 °C. Also, on human PAR-1, the IC50 was determined as 740 nM.

On to `CCNC(=O)c1ccc(-n2nnc(C(=O)NC3CC3)c2CSc2ccccc2)cc1` [Example 130, N-cyclopropyl-1-{4-[(ethylamino)carbonyl]phenyl}-5-[(phenylthio)methyl]-1H-1,2,3-triazole-4-carboxamide], for which the IC50 at human PAR-1 was 480 nM.

Turning to `CCNC(=O)c1ccc(-n2cc(C(=O)NC3CC3)nn2)c(OCCCc2ccccc2)c1` [Example 133, N-cyclopropyl-1-{4-[(ethylamino)carbonyl]-2-(3-phenylpropoxy)phenyl}-1H-1,2,3-triazole-4-carboxamide], the IC50 at human PAR-1 came to 270 nM.

On to `CCCc1c(C(=O)NC2CC2)nnn1-c1ccc(C(=O)NCC)cc1O` [Example 315, N-cyclopropyl-1-{4-[(ethylamino)carbonyl]-2-hydroxyphenyl}-5-propyl-1H-1,2,3-triazole-4-carboxamide], for which the melting point was 203 °C.

Regarding `CCNC(=O)c1ccc(-n2nnc(C(=O)NC3CC3)c2COCc2ccccc2)c(OCc2ccccc2)c1` [Example 316, 1-{2-(benzyloxy)-4-[(ethylamino)carbonyl]phenyl}-5-[(benzyloxy)methyl]-N-cyclopropyl-1H-1,2,3-triazole-4-carboxamide], the melting point was 132 °C.

`CCNC(=O)c1ccc(-n2nnc(C(=O)NC3CC3)c2CO)c(O)c1` [Example 317, N-cyclopropyl-1-{4-[(ethylamino)carbonyl]-2-hydroxyphenyl}-5-(hydroxymethyl)-1H-1,2,3-triazole-4-carboxamide] displayed a melting point of 185 °C.

As for `C/C=C/c1c(C(=O)NC2CC2)nnn1-c1ccc(C(=O)NCC(F)(F)F)cc1` [Example 399, N-cyclopropyl-5-[(1E)-prop-1-en-1-yl]-1-(4-{[(2,2,2-trifluoroethyl)amino]carbonyl}phenyl)-1H-1,2,3-triazole-4-carboxamide], the IC50 at human PAR-1 is 1400 nM.

Turning to `CCNC(=O)c1ccc(-n2nnc(C(=O)NC3CC3)c2COc2cccc(F)c2)cc1` [Example 414, N-cyclopropyl-1-{4-[(ethylamino)carbonyl]phenyl}-5-[(3-fluorophenoxy)methyl]-1H-1,2,3-triazole-4-carboxamide], the 50% inhibitory concentration (IC50) on human PAR-1 amounted to 190 nM.

As for `CCNC(=O)c1ccc(-n2nnc(C(=O)NC3CC3)c2CCCOc2ccc(OC(F)(F)F)cc2)cc1` [Example 522, N-cyclopropyl-1-{4-[(ethylamino)carbonyl]phenyl}-5-{3-[4-(trifluoromethoxy)phenoxy]propyl}-1H-1,2,3-triazole-4-carboxamide], on human PAR-1, the IC50 is 330 nM.

For orientation: IC50 means the point on the concentration scale where inhibition reaches its midpoint. Usually melting point stands for the temperature of the solid-liquid transition.
